Values quoted from earlier work as cited in patent EP4379726A1, “THE METHOD FOR PREDICTING THE OCCURRENCE OF THE OFF-TARGET TOXICITY CAUSED BY SIMILARITY BETWEEN A TARGET EPITOPE AND PUTATIVE OFF-TARGET EPITOPES” (Ardigen S.A., priority 2022, dated 2024).

System: AFP 158 -Specific TCR Engineered T Cells
Details: in vitro X-scan, engineered T cells against AFP 158 (FMNKFIYEI)

ILNKFIPDI
activation of the T-cell: could activate the T-cell
